Assay results: patent US11466019B2, “Triazolo[4,5-d] pyramidine derivatives and their use as purine receptor antagonists” (Vernalis (R&D) Limited, priority 2008, dated 2022)
pKi: −log10 of the molar value.

Assays:
[1] = biological target: T1, human adenosine A1 receptors (Homo sapiens, UniProt P30542); test: Adenosine receptor binding: binding affinities at hA1 receptors ([3H]DPCPX displacement); conditions: Table 1; for pKi: [3H]DPCPX displacement, CHO-K1 membranes, read-out: Binding Affinity hA1-Ki; for Binding Selectivity A1/A2a: ratio of Ki values
T1 construct: expressed in transfected cells; host or cells: CHO-K1
T1 sequence (P30542 1-326): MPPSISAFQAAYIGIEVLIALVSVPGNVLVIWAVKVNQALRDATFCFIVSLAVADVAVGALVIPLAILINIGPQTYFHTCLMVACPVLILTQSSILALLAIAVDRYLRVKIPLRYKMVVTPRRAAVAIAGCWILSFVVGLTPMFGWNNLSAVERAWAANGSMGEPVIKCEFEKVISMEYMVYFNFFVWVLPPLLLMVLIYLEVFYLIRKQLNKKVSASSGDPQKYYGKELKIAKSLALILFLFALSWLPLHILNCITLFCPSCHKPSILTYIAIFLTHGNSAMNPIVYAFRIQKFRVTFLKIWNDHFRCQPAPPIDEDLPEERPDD
Description: Adenosine Receptor Binding: Binding Affinities at hA1 Receptors
The resultant homogenate was kept for immediate use in the binding.
(§1) Binding assays were performed in a total volume of 250 μL, containing [^3H]-DPCPX (3.0 nM), membranes and additional drugs. Total binding was determined using drug dilution buffer (50 mM Tris-HCl pH:7.5, 10 mM MgCl2, 5% DMSO). Non-specific binding was determined using 300 μM N6-cyclohexyladenosine (CHA). […] Filters were left to dry overnight, and Microscint-0 scintillation fluid was then added to the filters. The filters were then left for at least 2 hours before the radioactivity was assessed using a Canberra Packard TopCount microplate scintillation counter.
To determine the free ligand concentration, three vials were counted with 25 μL of [^3H]DPCPX containing 4 mL of Ultima-Gold MV scintillant on a Beckman LS6500 multi-purpose scintillation counter.
(§2) Data was analysed using a 4 parameter logistical equation and non-linear regression which yields affinity constants (pIC50), and slope parameters:
(§3) [formula] where E is the quantity of binding and [A] is the competitor concentration. The Ki is then determined using the Cheng-Prusoff equation: […]

[2] = biological target: T2, human adenosine A2A receptors (Homo sapiens, UniProt P29274); test: Adenosine receptor binding: binding affinities at hA2A receptors ([3H]CGS-21680 displacement); conditions: Table 1; [3H]CGS-21680 displacement, HEK-293 membranes; read-out: Binding Affinity hA2A-Ki
T2 construct: host or cells: HEK-293
T2 sequence (P29274 whole entry): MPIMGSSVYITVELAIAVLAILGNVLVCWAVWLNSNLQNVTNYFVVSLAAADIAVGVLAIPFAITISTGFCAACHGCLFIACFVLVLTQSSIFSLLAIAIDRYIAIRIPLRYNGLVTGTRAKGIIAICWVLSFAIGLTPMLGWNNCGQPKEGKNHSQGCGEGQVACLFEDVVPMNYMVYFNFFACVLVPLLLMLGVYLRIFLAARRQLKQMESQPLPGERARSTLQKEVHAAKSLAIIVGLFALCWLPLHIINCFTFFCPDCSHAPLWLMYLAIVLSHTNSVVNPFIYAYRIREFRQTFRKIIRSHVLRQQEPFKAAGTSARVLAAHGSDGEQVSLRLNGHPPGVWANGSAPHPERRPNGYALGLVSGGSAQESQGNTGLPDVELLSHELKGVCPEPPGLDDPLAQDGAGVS
Description: Adenosine Receptor Binding: Binding Affinities at hA2A Receptors
as §1, with “The resultant homogenate was kept for immediate use in the binding assay. Binding” for “Binding”, “[^3H]-CGS21680 (20.0” for “[^3H]-DPCPX (3.0”, “pH 7.5,” for “pH:7.5,”, “CHA.” for “N6-cyclohexyladenosine (CHA).”
To determine the free ligand concentration, three vials were counted with 25 μL of [^3H]CGS21680 containing 4 mL of Ultima-Gold MV scintillant on a Beckman LS6500 multi-purpose scintillation counter.
as §2, §3

hA2B receptors = biological target: T3, hA2B receptors (Homo sapiens, UniProt P29275); test: Adenosine receptor binding: binding affinities at hA2B receptors ([3H]-ZM241385 displacement); conditions: Table 1; for pKi: [3H]-ZM241385 displacement, HEK-293 membranes, read-out: Binding Affinity hA2B-Ki; for Binding Selectivity A2b/A2a: ratio of Ki values
T3 construct: host or cells: HEK-293
T3 sequence (P29275 1-332): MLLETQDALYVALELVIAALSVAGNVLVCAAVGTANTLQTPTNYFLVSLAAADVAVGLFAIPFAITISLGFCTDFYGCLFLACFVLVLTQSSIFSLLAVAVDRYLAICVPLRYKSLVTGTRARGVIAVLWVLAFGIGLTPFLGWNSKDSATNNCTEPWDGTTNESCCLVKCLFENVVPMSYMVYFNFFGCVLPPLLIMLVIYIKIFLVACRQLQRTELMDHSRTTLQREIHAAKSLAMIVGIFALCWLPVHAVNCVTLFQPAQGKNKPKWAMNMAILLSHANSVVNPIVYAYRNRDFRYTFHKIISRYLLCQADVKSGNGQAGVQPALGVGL

[3] = biological target: T4, human adenosine A3 receptors (Homo sapiens, UniProt P0DMS8); test: Adenosine receptor binding: binding affinities at hA3 receptors ([125I]-AB MECA displacement); conditions: Table 1; for pKi: [125I]-AB MECA displacement, CHO-K1 membranes, read-out: Binding Affinity hA3-Ki; for Binding Selectivity A3/A2a: ratio of Ki values
T4 construct: expressed in transfected cells; host or cells: CHO-K1
T4 sequence (P0DMS8 1-318): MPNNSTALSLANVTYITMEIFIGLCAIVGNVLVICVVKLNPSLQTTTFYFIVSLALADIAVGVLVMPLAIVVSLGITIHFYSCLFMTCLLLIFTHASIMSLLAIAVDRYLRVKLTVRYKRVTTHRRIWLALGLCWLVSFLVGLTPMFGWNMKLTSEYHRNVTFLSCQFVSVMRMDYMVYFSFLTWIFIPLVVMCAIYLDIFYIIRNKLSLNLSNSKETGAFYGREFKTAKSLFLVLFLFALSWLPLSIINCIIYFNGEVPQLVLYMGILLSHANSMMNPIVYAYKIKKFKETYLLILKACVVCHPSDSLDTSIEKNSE
Description: [formula] Adenosine Receptor Binding: Binding Affinities at hA3 Receptors
The resultant homogenate was kept for immediate use in the binding assay.
as §1, with “Total” for “Binding assays were performed in a total volume of 250 μL, containing [^3H]-DPCPX (3.0 nM), membranes and additional drugs. Total”, “pH 7.5,” for “pH:7.5,”, “10” for “300”, “IB-MECA.” for “N6-cyclohexyladenosine (CHA).”
as §2, §3

[4] = test system: haloperidol-induced deficits in locomotor activity in mice; test: Haloperidol-induced hypolocomotion model (HaloLMA); assay type: in vivo; conditions: female TO mice, intraperitoneal, haloperidol 0.2 mg/kg
Text: Evaluation of Potential Anti-Parkinsonian Activity In Vivo: Haloperidol-Induced Hypolocomotion Model
This approach is also considered a valid method for screening drugs with potential antiparkinsonian effects. Thus, the ability of novel adenosine antagonists to block haloperidol-induced deficits in locomotor activity in mice can be used to assess both in vivo and potential antiparkinsonian efficacy.
Female TO mice (25-30 g) are used for all experiments. Animals are housed in groups of 8 (cage size-40 cm (width) by 40 cm (length) by 20 cm (height)) under 12 hour light/dark cycle (lights on 08:00), in a temperature (20±2° C.) and humidity (55±15%) controlled environment. Animals have free access to food and water, and are allowed at least 7 days to acclimatize after delivery before experimental use.
Liquid injectable haloperidol (e.g., 1 mL Serenance ampoules from Baker Norton, Harlow, Essex, each containing haloperidol BP 5 mg) are diluted to a final concentration of 0.02 mg/mL using saline. Test compounds are typically prepared as aqueous suspensions in 8% Tween. All compounds are administered intraperitoneally in a volume of 10 mL/kg.
1.5 hours before testing, mice are administered 0.2 mg/kg haloperidol, a dose that reduces baseline locomotor activity by at least 50%. Test substances are typically administered 5-60 minutes prior to testing. The animals are then placed individually into clean, clear polycarbonate cages (20 cm (width) by 40 cm (length) by 20 cm (height), with a flat perforated, Perspex lid). Horizontal locomotor activity is determined by placing the cages within a frame containing a 3 by 6 array of photocells linked to a computer, which tabulates beam breaks. Mice are left undisturbed to explore for 1 hour, and the number of beams breaks made during this period serves as a record of locomotor activity which is compared with data for control animals for statistically significant differences.
A number of the exemplified compounds of the present invention were tested in this assay and the results obtained are shown in Table 3, below.

SMILES	pKi [1]	Binding Selectivity A1/A2a [1]	pKi [2]	pKi (hA2B receptors)	Binding Selectivity A2b/A2a (hA2B receptors)	pKi [3]	Binding Selectivity A3/A2a [3]	melting point [°C]	In Vivo activity HaloLMA MED [4] [mg/kg]
Cc1ccc(-c2nc(N)nc3c2nnn3Cc2cccc(C3(O)CCCC3)n2)o1 [Example 3, 7-(5-methylfuran-2-yl)-3-(6-[1-hydroxy-1-cyclopentyl]pyrid-2-ylmethyl)-3H-[1,2,3]triazolo[4,5-d]pyrimidin-5-amine]	6.44	226	8.80	6.01	602	6.12	465	–	1
Cc1ccc(-c2nc(N)nc3c2nnn3Cc2cccc(C3(O)CCC3)n2)o1 [Example 6]	6.45	313	8.96	5.86	1216	5.82	1326	–	1
COCc1cccc(Cn2nnc3c(-c4nc(C)cs4)nc(N)nc32)n1 [Example 30, 7-(4-methylthiazol-2-yl)-3-(6-[methoxymethyl]pyrid-2-ylmethyl)-3H-[1,2,3]triazolo[4,5-d]pyrimidin-5-amine]	6.10	168	8.32	5.62	498	5.34	965	–	3
CC(C)(O)c1cccc(Cn2nnc3c(-c4ccccc4)nc(N)nc32)n1 [Example 8, 7-phenyl-3-(6-[1-hydroxy-1-methylethyl]pyrid-2-ylmethyl)-3H-[1,2,3]triazolo[4,5-d]pyrimidin-5-amine]	6.67	44	8.32	5.89	269	5.42	780	–	3
Cc1csc(-c2nc(N)nc3c2nnn3Cc2cccc(C3(O)CCCC3)n2)n1 [Example 27, 7-(4-methylthiazol-2-yl)-3-(6-[1-hydroxy-1-cyclopentyl]pyrid-2-ylmethyl)-3H-[1,2,3]triazolo[4,5-d]pyrimidin-5-amine]	5.76	154	7.95	5.24	510	5.12	668	–	10
Cc1ccc(-c2nc(N)nc3c2nnn3Cc2cccc(C(C)(C)O)n2)o1 [Example 2, 7-(5-methylfuran-2-yl)-3-(6-[1-hydroxy-1-methylethyl]pyrid-2-ylmethyl)-3H-[1,2,3]triazolo[4,5-d]pyrimidin-5-amine]	6.44	192	8.72	5.66	1165	6.15	375	–	1
COCc1cccc(Cn2nnc3c(-c4ccccc4)nc(N)nc32)n1 [Example 12, 7-phenyl-3-(6-[methoxymethyl]pyrid-2-ylmethyl)-3H-[1,2,3]triazolo[4,5-d]pyrimidin-5-amine]	6.57	96	8.55	6.00	354	5.09	2893	–	10

Second part, led by results:

pKi [1]	Binding Selectivity A1/A2a [1]	pKi [2]	pKi (hA2B receptors)	Binding Selectivity A2b/A2a (hA2B receptors)	pKi [3]	Binding Selectivity A3/A2a [3]	melting point [°C]	SMILES	In Vivo activity HaloLMA MED [4] [mg/kg]
6.52	42	8.14	5.70	274	5.66	303	154.2 to 154.5	Cc1ccc(-c2nc(N)nc3c2nnn3Cc2cccc(COCC3CCCO3)n2)o1 (stereo not drawn) [Example 33, 745-methylfuran-2-yl-3-(6-[tetrahydrofuran-2-ylmethyl]oxymethylpyrid-2-ylmethyl)-3H-[1,2,3]triazolo[4,5-d]pyrimidin-5-amine]	3
6.48	73	8.34	5.69	442	5.60	545	–	CCOCCOCc1cccc(Cn2nnc3c(-c4ccc(C)o4)nc(N)nc32)n1 [Example 32]	1
6.78	40	8.39	5.72	457	5.67	513	168.7 to 168.9	Cc1ccc(-c2nc(N)nc3c2nnn3Cc2cccc(COCC3CCOC3)n2)o1 (racemic) [Example 34, 7-(5-methylfuran-2-yl)-3-(6-[tetrahydrofuran-3-ylmethyl]oxymethylpyrid-2-ylmethyl)-3H-[1,2,3]triazolo[4,5-d]pyrimidin-5-amine]	1
–	–	–	–	–	–	–	194.8 to 195.1	Cc1ccc(-c2nc(N)nc3c2nnn3Cc2cccc(COC(F)F)n2)o1 [Example 31, 7-(5-methylfuran-2-yl)-3-(6-[difluoromethyloxymethyl]-pyrid-2-ylmethyl)-3H-[1,2,3]triazolo[4,5-d]pyrimidin-5-amine]	1
